From ChEMBL document CHEMBL5506003, “Design and biological evaluation of dual tubulin/HDAC inhibitors based on millepachine for treatment of prostate cancer” (Eur J Med Chem, 2024)
The source made the active and inactive calls. The calls are words filed in the database; no cut-off is given here.

What was measured:
PC-3 [1] = test: Induction of cell cycle arrest in human PC-3 cells assessed as S phase cells at 0.08 uM incubated for 24 hrs by PI staining based flow cytometry analysis (reference value: 31.7%); format: functional
PC-3 [2] = test: Induction of mitochondrial membrane potential loss in human PC-3 cells assessed as increase in monomer JC-1 level by measuring green fluorescence intensity at 0.16 uM incubated for 24 hrs by JC-1 staining based flow cytometry analysis (reference value: 6.44%); format: functional
Histone deacetylase 1 = Histone deacetylase 1 (Homo sapiens, UniProt Q13547); test: Inhibition of HDAC1 in human HeLa nuclear extracts incubated for 30 mins by fluorescence based assay; format: cell-free
PC-3 [3] = test: Induction of apoptosis in human PC-3 cells assessed as upregulation of cleaved caspase-3 expression at 0.08 to 0.32 uM by Western blotting analysis; format: functional, cell-based; settings: dose 0.08-0.32 µM
PC-3 [4] = test: Induction of cell cycle arrest in human PC-3 cells assessed as G1 phase cells at 0.32 uM incubated for 24 hrs by PI staining based flow cytometry analysis (reference value: 56.17%); format: functional
A549 [5] = test: Inhibition of cell migration in human A549 cells at 0.4 to 1.6 uM incubated for 24 hrs by crystal violet staining based transwell method; format: functional; settings: dose 0.4-1.6 µM
PC-3 [6] = test: Induction of apoptosis in human PC-3 cells assessed as necrotic cells at 0.16 uM incubated for 24 hrs by Annexin V-FITC and PI staining based flow cytometry (reference value: 0.13%); format: functional
PC-3 [7] = test: Induction of cell cycle arrest in human PC-3 cells assessed as S phase cells at 0.16 uM incubated for 24 hrs by PI staining based flow cytometry analysis (reference value: 31.7%); format: functional
PC-3 [8] = test: Induction of apoptosis in human PC-3 cells assessed as viable cells at 0.32 uM incubated for 24 hrs by Annexin V-FITC and PI staining based flow cytometry (reference value: 97.5%); format: functional; settings: read-out: Activity
PC-3 [9] = test: Induction of cell cycle arrest in human PC-3 cells assessed as decrease in phosphorylated Cdc25c at Ser216 by Western blotting analysis; format: functional, cell-based; settings: dose 0.08-0.32 µM
PC-3 [10] = test: Induction of mitochondrial membrane potential loss in human PC-3 cells assessed as decrease in JC-1 aggregate level by measuring red fluorescence intensity at 0.08 uM incubated for 24 hrs by JC-1 staining based flow cytometry analysis (reference value: 93.5%); format: functional; set-up: scale not given: the % may be the effect or the level left
A549 [11] = test: Cytotoxicity against human A549 cells incubated for 72 hrs by MTT assay; settings: A549, 72 h
Tubulin = test: (§1) Inhibition of tubulin polymerization (unknown origin) measured after 60 mins by fluorescence based assay; format: protein-complex assay, Homo sapiens
Tubulin (Homo sapiens) = Tubulin (Homo sapiens) (UniProt P68371+Q9H4B7+P0DPH7+P68366+Q13509+Q71U36+P04350+Q3ZCM7+P07437+P68363+Q9BQE3+Q6PEY2+Q13885+Q9BVA1+Q9BUF5); test: as §1; format: protein-complex assay
U-251 = test: Cytotoxicity against human U-251 cells incubated for 72 hrs by MTT assay; settings: U-251, 72 h
PC-3 [12] = test: Induction of mitochondrial membrane potential loss in human PC-3 cells assessed as decrease in JC-1 aggregate level by measuring red fluorescence intensity at 0.32 uM incubated for 24 hrs by JC-1 staining based flow cytometry analysis (reference value: 93.5%); format: functional; set-up: scale not given: the % may be the effect or the level left
PC-3 [13] = test: Induction of cell cycle arrest in human PC-3 cells assessed as increase in cyclin B1 level at 0.08 to 0.32 uM by Western blotting analysis; format: functional, cell-based; settings: dose 0.08-0.32 µM
PC-3 [14] = test: Induction of mitochondrial membrane potential loss in human PC-3 cells assessed as increase in monomer JC-1 level by measuring green fluorescence intensity at 0.08 uM incubated for 24 hrs by JC-1 staining based flow cytometry analysis (reference value: 6.44%); format: functional
PC-3 [15] = test: Induction of apoptosis in human PC-3 cells assessed as late apoptotic cells at 0.08 uM incubated for 24 hrs by Annexin V-FITC and PI staining based flow cytometry (reference value: 1.02%); format: functional
PC-3 [16] = test: Induction of cell cycle arrest in human PC-3 cells assessed as decrease in phosphorylated […] Tyr15 by Western blotting analysis; format: functional, cell-based; settings: dose 0.08-0.32 µM
[17] = molecular target: T1, Protein deacetylase HDAC6 (Homo sapiens, UniProt Q9UBN7); test: Inhibition of HDAC6 in human HeLa nuclear extracts incubated for 30 mins by fluorescence based assay; format: cell-free
T1 sequence (Q9UBN7 whole entry): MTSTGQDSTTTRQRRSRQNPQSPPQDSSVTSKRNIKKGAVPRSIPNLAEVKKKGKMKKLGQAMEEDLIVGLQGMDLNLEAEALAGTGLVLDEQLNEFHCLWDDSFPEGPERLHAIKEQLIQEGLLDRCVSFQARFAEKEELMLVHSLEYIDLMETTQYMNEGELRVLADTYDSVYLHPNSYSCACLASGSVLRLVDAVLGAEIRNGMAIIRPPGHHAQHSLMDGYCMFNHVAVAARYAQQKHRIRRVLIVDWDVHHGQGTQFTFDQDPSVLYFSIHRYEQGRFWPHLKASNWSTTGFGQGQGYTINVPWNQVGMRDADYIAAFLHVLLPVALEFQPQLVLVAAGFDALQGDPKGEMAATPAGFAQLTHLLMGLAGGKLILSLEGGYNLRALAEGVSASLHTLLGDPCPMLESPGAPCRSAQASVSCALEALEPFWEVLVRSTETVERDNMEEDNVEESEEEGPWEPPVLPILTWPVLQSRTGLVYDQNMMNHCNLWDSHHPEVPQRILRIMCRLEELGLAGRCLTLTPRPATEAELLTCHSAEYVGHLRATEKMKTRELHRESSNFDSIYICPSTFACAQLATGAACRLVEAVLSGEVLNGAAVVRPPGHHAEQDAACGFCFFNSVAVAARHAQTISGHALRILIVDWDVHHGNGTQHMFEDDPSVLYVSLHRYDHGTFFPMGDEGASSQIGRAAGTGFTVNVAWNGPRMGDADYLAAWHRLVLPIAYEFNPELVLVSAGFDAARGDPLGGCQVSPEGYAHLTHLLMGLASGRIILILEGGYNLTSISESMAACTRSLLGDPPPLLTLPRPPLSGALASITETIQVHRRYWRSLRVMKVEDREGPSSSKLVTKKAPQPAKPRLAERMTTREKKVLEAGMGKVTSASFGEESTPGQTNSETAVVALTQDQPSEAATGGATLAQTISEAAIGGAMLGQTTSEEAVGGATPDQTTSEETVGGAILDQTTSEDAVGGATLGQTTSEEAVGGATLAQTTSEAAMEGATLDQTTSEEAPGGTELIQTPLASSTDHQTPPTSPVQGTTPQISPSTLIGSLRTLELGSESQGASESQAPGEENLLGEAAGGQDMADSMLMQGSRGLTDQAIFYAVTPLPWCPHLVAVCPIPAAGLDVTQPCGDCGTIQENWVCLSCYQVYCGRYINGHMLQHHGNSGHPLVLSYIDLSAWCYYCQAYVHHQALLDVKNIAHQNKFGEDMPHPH

PC-3 [18] = test: Induction of cell cycle arrest in human PC-3 cells assessed as G2/M phase cells at 0.08 uM incubated for 24 hrs by PI staining based flow cytometry analysis (reference value: 12.83%); format: functional

Sequence of Histone deacetylase 1 (Q13547 whole entry): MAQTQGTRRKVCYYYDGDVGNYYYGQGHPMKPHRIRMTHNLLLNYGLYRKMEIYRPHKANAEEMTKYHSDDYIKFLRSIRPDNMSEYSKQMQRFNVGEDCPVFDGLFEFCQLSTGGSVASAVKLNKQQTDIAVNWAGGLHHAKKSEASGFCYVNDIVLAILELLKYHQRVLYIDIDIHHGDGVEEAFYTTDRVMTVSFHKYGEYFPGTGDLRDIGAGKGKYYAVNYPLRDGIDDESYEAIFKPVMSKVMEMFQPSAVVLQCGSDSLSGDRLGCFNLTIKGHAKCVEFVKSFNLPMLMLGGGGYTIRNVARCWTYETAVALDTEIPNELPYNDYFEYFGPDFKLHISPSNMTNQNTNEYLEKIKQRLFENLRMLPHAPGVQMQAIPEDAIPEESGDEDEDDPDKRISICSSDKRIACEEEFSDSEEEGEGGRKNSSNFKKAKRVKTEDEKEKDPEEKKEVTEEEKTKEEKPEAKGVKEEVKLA

`COc1ccc(/C=C/C(=O)c2ccc(OC)c3c2OC(C)(C)C=C3)cc1NCC(=O)NO` showed an Activity (PC-3 [1]) of 39.9%, an Activity (PC-3 [2]) of 20.7% and an IC50 (Histone deacetylase 1) of 730 nM. For the same compound, the Activity (PC-3 [3]) was “Active”, the Activity (PC-3 [4]) was 6% and the inhibition (A549 [5]) was “Active”. The Activity (PC-3 [6]) was 0.47%, the Activity (PC-3 [7]) was 28.7% and the viability at 0.32 µM (PC-3 [8]) was 27.6%. For the same compound, the Activity (PC-3 [9]) was “Active”, the Activity (PC-3 [10]) was 88.4% and the IC50 (A549 [11]) was 290 nM. The IC50 (Tubulin) was 4.82 µM, the inhibition (Tubulin (Homo sapiens)) was “Dose-Dependent Effect” and the IC50 (U-251) was 150 nM. For the same compound, the Activity (PC-3 [12]) was 58.9%, the Activity (PC-3 [13]) was “Active” and the Activity (PC-3 [14]) was 10.6%. For the same compound, the Activity (PC-3 [15]) was 2.59%, the Activity (PC-3 [16]) was “Active” and the IC50 [17] was 620 nM. It also gave an Activity (PC-3 [18]) of 25.45%.
